Series [1] has as its target T1, Indoleamine 2,3-dioxygenase 1 (Homo sapiens, UniProt P14902). The series can be described thus: Inhibition of recombinant His-tagged IDO1 (unknown origin) expressed in Escherichia coli preincubated for 30 mins followed by substrate tryptophan addition and measured after 60 mins by fluorescence based assay.
Series [2] in a line: MRT in rat. Format: ADME. The following applies: in vivo.
Series [3] is described as follows: Clearance in human Hepatocyte. Format: ADME, cell-based. The following applies: hepatocytes, read-out: CLH.
Series [4] can be described thus: Lipophilicity, log D of compound at pH 7 by HPLC analysis. Format: physicochemical. As to conditions: buffer.
The nature of series [5]: Total clearance in rat. Format: ADME. The following applies: in vivo.
Series [6] in a line: Intrinsic clearance in rat. Format: ADME.
The target in series [7] is T1, Indoleamine 2,3-dioxygenase 1. The series can be described thus: Inhibition of IDO1 in human HeLa cells stimulated with IFNgamma using L-tryptophan as substrate incubated for 48 hrs by fluorescence based assay. Format: cell-based.
A short description of series [8]: Apparent permeability of compound. Format: ADME. The following applies: not told.
Series [9] is described as follows: Oral bioavailability in rat. Format: ADME, organism-based. The following applies: in vivo.
Series [10] can be described thus: Clearance in dog. As to conditions: in vivo. Format: ADME, Canis lupus familiaris.
Series [11] can be described thus: Unbound clearance in dog. Format: ADME, Canis lupus familiaris. The following applies: in vivo.
The nature of series [12]: Half life in dog. Format: ADME, Canis lupus familiaris. The following applies: in vivo.
Series [13] is described as follows: Oral bioavailability in dog. As to conditions: in vivo. Format: ADME, organism-based, Canis lupus familiaris.
Series [14] has as its target Tryptophan 2,3-dioxygenase (Homo sapiens, UniProt P48775). The series can be described thus: Inhibition of TDO in human SW480 cells incubated for 48 hrs using L-tryptophan as substrate by fluorescence based assay. Format: cell-based.
A further series has as its target CYP450 (Homo sapiens, UniProt P04798+P05177+P05181+P08684+P10632+P10635+P11509+P11712+P13584+P20813+P20815+P20853+P24462+P24903+P33260+P33261+P51589+P78329+P98187+Q02928+Q08477+Q16678+Q16696+Q5TCH4+Q6VVX0+Q7Z449+Q8TAV3+Q96SQ9+Q9HB55). The series can be described thus: Inhibition of CYP450 (unknown origin). Format: ADME, protein assay.
The target of series [15] is T2, Nuclear receptor subfamily 1 group I member 2 (Homo sapiens, UniProt O75469).
T2 sequence (O75469 whole entry): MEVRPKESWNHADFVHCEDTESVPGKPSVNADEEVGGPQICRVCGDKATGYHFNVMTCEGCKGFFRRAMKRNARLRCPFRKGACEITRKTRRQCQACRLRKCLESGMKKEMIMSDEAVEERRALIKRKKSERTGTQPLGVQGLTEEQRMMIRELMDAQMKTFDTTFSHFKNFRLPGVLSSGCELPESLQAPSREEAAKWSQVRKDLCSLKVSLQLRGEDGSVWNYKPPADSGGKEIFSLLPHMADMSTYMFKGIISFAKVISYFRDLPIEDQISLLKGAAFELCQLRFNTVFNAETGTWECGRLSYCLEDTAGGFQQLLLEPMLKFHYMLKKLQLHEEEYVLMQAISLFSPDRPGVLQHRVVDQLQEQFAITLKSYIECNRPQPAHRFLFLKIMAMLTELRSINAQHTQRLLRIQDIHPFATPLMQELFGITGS
The series can be described thus: Activation of PXR (unknown origin).

Series [16] can be described thus: Toxicity in rat assessed as adverse event. As to conditions: in vivo.
Series [17] is described as follows: Thermal stability of compound assessed as parent compound remaining measured after 3 hrs. Format: physicochemical. As to conditions: read-out: Stability.
Series [18] is described as follows: Chemical stability of compound in 0.01 N HCl assessed as parent compound remaining measured after 3 hrs. Format: physicochemical. The following applies: read-out: Stability.
Series [19] in a line: Chemical stability of compound in 0.01 N NaOH assessed as parent compound remaining measured after 3 hrs. Format: physicochemical. As to conditions: read-out: Stability.
Series [20] is described as follows: Chemical stability of compound in 0.1 N HCl assessed as parent compound remaining measured after 24 hrs. Format: physicochemical. The following applies: read-out: Stability.
A short description of series [21]: Chemical stability of compound in H2O2 assessed as parent compound remaining measured after 24 hrs. Format: physicochemical. The following applies: read-out: Stability.
A short description of series [22]: Chemical stability of compound in 0.1 N NaOH assessed as parent compound remaining measured after 24 hrs. Format: physicochemical. The following applies: read-out: Stability.
Series [23] can be described thus: Chemical stability of compound in AIBN assessed as parent compound remaining measured after 24 hrs. Format: physicochemical. As to conditions: read-out: Stability.
Series [24] relates to EMT6. The series can be described thus: Antitumor activity against mouse EMT6 cells xenografted in BALB/c mouse assessed as reduction in tumor volume at 100 mg/kg, po bid and measured for weekly twice relative to control. Format: functional. Details: scale not given: the % may be the effect or the level left.
The subject of series [25] is EMT6. The series can be described thus: Antitumor activity against mouse EMT6 cells xenografted in BALB/c mouse assessed as reduction in tumor volume at 100 mg/kg, po bid in presence of anti-PD1 at 5 mg/kg, […] and measured for weekly twice relative to control. Format: functional. Set-up: scale not given: the % may be the effect or the level left.
Series [26] deals with Indoleamine 2,3-dioxygenase 1 (Rattus norvegicus, UniProt Q9ERD9). The series can be described thus: Inhibition of rat IDO1 preincubated for 30 mins followed by substrate tryptophan addition and measured after 60 mins by fluorescence based assay.
Sequence of Indoleamine 2,3-dioxygenase 1 (Rattus norvegicus, UniProt Q9ERD9) (Q9ERD9 whole entry): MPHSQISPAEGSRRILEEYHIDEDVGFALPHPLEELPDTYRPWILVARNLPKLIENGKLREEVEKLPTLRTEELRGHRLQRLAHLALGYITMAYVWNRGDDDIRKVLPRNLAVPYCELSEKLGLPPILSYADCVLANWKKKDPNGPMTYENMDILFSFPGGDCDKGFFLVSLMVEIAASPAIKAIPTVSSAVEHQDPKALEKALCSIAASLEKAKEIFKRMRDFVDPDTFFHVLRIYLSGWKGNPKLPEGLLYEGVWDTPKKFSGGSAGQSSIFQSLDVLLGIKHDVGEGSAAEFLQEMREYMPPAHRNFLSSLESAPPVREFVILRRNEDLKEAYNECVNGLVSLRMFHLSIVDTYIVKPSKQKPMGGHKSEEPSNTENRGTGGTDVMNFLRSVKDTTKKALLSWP
Series [27] deals with Indoleamine 2,3-dioxygenase 1 (Mus musculus, UniProt P28776). The series can be described thus: Inhibition of mouse IDO1 preincubated for 30 mins followed by substrate tryptophan addition and measured after 60 mins by fluorescence based assay.
Sequence of Indoleamine 2,3-dioxygenase 1 (Mus musculus, UniProt P28776) (P28776 whole entry): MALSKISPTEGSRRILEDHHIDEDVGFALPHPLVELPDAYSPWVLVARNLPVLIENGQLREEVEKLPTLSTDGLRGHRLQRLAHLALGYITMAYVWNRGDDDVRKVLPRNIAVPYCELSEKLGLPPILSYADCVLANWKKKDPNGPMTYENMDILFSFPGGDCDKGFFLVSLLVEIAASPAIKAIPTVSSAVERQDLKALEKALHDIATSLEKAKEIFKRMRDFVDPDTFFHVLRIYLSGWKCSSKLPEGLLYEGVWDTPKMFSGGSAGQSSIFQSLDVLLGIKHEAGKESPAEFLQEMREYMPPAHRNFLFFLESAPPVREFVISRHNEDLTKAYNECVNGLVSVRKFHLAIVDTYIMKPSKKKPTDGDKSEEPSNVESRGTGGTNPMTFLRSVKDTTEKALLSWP
The nature of series [28]: Unbound clearance in rat. As to conditions: in vivo. Format: ADME.

T1 sequence (P14902 whole entry): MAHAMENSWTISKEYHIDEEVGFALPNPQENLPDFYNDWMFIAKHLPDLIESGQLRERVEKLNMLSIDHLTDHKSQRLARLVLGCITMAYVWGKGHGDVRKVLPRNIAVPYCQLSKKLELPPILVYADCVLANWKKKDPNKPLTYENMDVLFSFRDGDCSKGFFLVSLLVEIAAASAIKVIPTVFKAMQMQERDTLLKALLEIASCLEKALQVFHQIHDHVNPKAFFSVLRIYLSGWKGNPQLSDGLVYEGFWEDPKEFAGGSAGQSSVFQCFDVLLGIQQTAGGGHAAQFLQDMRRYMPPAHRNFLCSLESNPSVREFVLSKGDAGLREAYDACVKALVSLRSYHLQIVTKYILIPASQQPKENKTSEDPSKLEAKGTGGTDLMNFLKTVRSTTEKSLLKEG
Sequence of Tryptophan 2,3-dioxygenase (P48775 whole entry): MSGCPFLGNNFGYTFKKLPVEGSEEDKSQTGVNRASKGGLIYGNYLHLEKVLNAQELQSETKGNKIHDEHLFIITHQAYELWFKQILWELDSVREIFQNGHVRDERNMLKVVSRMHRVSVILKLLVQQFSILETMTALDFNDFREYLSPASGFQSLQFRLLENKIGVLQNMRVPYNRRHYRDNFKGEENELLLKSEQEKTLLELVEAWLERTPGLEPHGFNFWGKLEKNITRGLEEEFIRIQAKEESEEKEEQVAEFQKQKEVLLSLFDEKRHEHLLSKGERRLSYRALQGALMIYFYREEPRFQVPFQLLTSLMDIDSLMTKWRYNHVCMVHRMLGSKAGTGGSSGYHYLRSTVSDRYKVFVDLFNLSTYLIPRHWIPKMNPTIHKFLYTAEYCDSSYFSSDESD

On to `Nc1nonc1/C(=N/O)NC1Cc2ccccc2C1`, for which the IC50 – broadly, the point on the concentration scale where inhibition reaches its midpoint – in series [1] was found to be 43800 nM.

Regarding `CC(=O)NCCSc1nonc1/C(=N/O)N[C@H]1Cc2ccc(F)cc21`, the MRT (in general, a mean duration of stay, worked out from the concentration-time curve) in [2] was 1 h. Besides, the CLint scaled amounted to 354 mL/min/kg in [3] and 1880 mL/min/kg in series [6]. Further, in series [4], the logD (in general, lipophilicity at a set pH, counting ionised and neutral species) is 2.46. Moreover, the clearance (in general, a measure of how efficiently the substance is removed, as volume per time) in [5] amounted to 29 mL/min/kg.

For `Nc1nonc1/C(=N/O)NC1CCCc2ccccc21` (stereo not given), the IC50 in series [1] was 2750 nM.

With `Nc1nonc1/C(=N/O)NC1Cc2cc(F)ccc21` (stereo not given), the IC50 in [1] came to 735 nM; in [7], 150 nM.

As for `NC(=O)CNc1nonc1/C(=N/O)N[C@H]1Cc2ccc(F)cc21`, in series [2], the MRT was 1.7 h. For the same compound, the CLint scaled in [3] came to 523 mL/min/kg; in [6], 499 mL/min/kg. Moreover, in [5], the clearance was found to be 17 mL/min/kg.

For the compound `O=C(CNc1nonc1/C(=N/O)N[C@H]1Cc2ccc(F)cc21)NCCO`, the mean residence time (MRT) in [2] came to 2.9 h. Besides, the CLint scaled was 48 mL/min/kg in series [3] and 112 mL/min/kg in [6]. Further, the logD in series [4] was 1.9 to 2. The clearance worked out at 15 mL/min/kg in series [5] and 6 mL/min/kg in series [10]. For the same compound, the apparent permeability coefficient (Papp) (in general, the rate of passage across a membrane or cell layer, normalised by area and donor concentration) in series [8] is 25 ×10⁻⁶ cm/s. The bioavailability (usually dose-corrected exposure relative to a reference, in per cent) amounted to 63% in [9] and 67% in series [13]. Besides, the CL free turned out to be 88 mL/min/kg in [11] and 319 mL/min/kg in [28]. Also, the half-life – broadly, how long it takes for the measured level to halve – in [12] is 6 h. Also, the IC50 was more than 10000 nM in series [14], more than 50000 nM at CYP450, 59 nM in series [26] and 28 nM in series [27]. Moreover, the EC50 (commonly the concentration giving half of the maximal effect) in series [15] was more than 30000 nM. Also, the Activity result in series [16] is “Non-Toxic”; in the series with EMT6 [24], 15%; in the series on EMT6 [25], 79%. For the same compound, the remaining at 3 h in [17] turned out to be 88.4%; in series [18], 98.1%; in series [19] it was 97.4%. In addition, the remaining at 24 h is 96.2% in [20], 97% in [21], 81.5% in series [22] and 77.1% in series [23].

Take `O=C(CSc1nonc1/C(=N/O)N[C@H]1Cc2ccc(F)cc21)NCCO`: the MRT in [2] stood at 0.8 h. Further, the CLint scaled in series [3] came to 108 mL/min/kg; in [6], 2500 mL/min/kg. Further, the logD in series [4] stood at 2. Further, the clearance in series [5] was 42 mL/min/kg.

In the case of `CC(=O)NCCNc1nonc1/C(=N/O)N[C@H]1Cc2ccc(F)cc21`, the MRT in series [2] worked out at 0.4 h. Moreover, the CLint scaled in [3] is 863 mL/min/kg; in series [6], 3550 mL/min/kg. In series [5], this compound displayed a clearance of 51 mL/min/kg.

For the compound `NS(=O)(=O)NCCNc1nonc1/C(=N/O)N[C@H]1Cc2ccc(F)cc21`, the MRT in [2] was determined as 2 h. The CLint scaled in [3] was 462 mL/min/kg; in series [6], 463 mL/min/kg. This compound also gave a logD in [4] of 2.4. The clearance in series [5] was 12 mL/min/kg.

With `Nc1nonc1/C(=N/O)N[C@H]1Cc2ccc(F)cc21`, in series [2], the MRT was found to be 0.4 h. Moreover, the logD in series [4] was found to be 2.7. Moreover, the clearance in series [5] was found to be 60 mL/min/kg. Further, the CLint scaled in series [6] turned out to be 7380 mL/min/kg.

Turning to `Nc1nonc1/C(=N/O)NC1Cc2cc(F)c(F)cc21` (stereo not given), the IC50 in [1] turned out to be 392 nM; in [7] it was 75 nM.

With `NS(=O)(=O)NCCSc1nonc1/C(=N/O)N[C@H]1Cc2ccc(F)cc21`, the MRT in [2] was 2.5 h. Besides, the results for the CLint scaled in series [3] and in series [6] were 616 mL/min/kg and 977 mL/min/kg, respectively. The compound further returned a logD in [4] of 2.45. In [5], this compound gave a clearance of 14 mL/min/kg.

These data come from ChEMBL document CHEMBL4406911, “Discovery of Amino-cyclobutarene-derived Indoleamine-2,3-dioxygenase 1 (IDO1) Inhibitors for Cancer Immunotherapy” (ACS Med Chem Lett, 2019).
